Test results reported in ChEMBL document CHEMBL5365473, “Novel Sulfonylurea-Based NLRP3 Inflammasome Inhibitor for Efficient Treatment of Nonalcoholic Steatohepatitis, Endotoxic Shock, and Colitis” (J Med Chem, 2023).
Each block holds one molecule with its values, some of them ahead of it.

Biological target: NACHT, LRR and PYD domains-containing protein 3 (Mus musculus, UniProt Q8R4B8)
Experiment: Inhibition of NLRP3 inflammasome in mouse […] cells assessed as inhibition of LPS/ATP-induced IL-1 beta secretion primed with LPS for 4.5 hs followed by incubation with compound for 30 mins and later stimulation with ATP for 30 mins by ELISA
Assay type: cell-based, J774.A1

NACHT, LRR and PYD domains-containing protein 3, sequence (Q8R4B8 whole entry, the tested form may be a part): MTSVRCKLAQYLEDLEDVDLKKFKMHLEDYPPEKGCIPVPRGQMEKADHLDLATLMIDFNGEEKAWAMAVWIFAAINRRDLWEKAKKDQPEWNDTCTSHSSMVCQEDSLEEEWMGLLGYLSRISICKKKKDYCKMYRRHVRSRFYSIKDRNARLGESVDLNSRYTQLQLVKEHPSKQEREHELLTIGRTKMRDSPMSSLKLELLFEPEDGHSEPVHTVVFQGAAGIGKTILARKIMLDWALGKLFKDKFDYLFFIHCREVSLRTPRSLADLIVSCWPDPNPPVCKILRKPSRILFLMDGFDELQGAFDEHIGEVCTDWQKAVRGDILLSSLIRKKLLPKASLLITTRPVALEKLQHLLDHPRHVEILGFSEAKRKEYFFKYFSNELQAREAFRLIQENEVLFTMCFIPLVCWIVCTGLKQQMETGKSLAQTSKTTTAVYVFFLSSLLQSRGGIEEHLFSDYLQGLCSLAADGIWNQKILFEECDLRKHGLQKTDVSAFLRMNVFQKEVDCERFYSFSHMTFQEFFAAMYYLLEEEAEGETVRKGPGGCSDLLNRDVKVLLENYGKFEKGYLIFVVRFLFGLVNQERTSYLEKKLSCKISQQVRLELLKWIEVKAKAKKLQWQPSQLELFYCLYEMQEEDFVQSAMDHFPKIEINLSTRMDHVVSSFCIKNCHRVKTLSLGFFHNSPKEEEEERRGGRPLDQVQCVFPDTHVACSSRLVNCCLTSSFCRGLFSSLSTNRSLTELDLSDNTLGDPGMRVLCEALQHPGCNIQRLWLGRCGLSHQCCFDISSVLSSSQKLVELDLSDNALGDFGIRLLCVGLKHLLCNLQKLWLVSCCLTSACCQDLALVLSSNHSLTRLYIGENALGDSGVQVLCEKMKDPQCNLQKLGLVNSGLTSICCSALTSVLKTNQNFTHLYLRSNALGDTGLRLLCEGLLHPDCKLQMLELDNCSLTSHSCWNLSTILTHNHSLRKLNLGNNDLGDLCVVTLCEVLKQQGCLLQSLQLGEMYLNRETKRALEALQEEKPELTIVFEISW

Compound: CC(=O)c1cccc(S(=O)(=O)NC(=O)Nc2c3c(cc4c2CCC4)CCC3)c1
- IC50: > 20 µM

Compound: CN(C)c1ccc(S(=O)(=O)NC(=O)Nc2c3c(cc4c2CCC4)CCC3)cc1
- IC50: > 10 µM

Compound: CN1CCN(Cc2ccc(S(=O)(=O)NC(=O)Nc3c4c(cc5c3CCC5)CCC4)cc2)CC1
- IC50: > 10 µM

Compound: CCCN(C)Cc1ccc(S(=O)(=O)NC(=O)Nc2c3c(cc4c2CCC4)CCC3)cc1
- IC50: > 10 µM

Compound: CC(C)(O)c1coc(S(=O)(=O)NC(=O)Nc2c3c(c(-c4ccc(C=O)cc4)c4c2CCC4)CCC3)c1
- IC50: > 5 µM

Compound: CC(C)(C)OC(=O)N1CC=C(c2c3c(c(NC(=O)NS(=O)(=O)c4cc(C(C)(C)O)co4)c4c2CCC4)CCC3)CC1
- IC50: > 5 µM

Compound: CC(C)(O)c1cccc(S(=O)(=O)NC(=O)Nc2c3c(cc4c2CCC4)CCC3)c1
- IC50: > 20 µM

Compound: Cc1cccc(C)c1NC(=O)NS(=O)(=O)c1ccc(CN(C)C)cc1
- IC50: > 10 µM

Compound: CC(C)(O)c1coc(S(=O)(=O)NC(=O)Nc2c3c(c(-c4cccc(C#N)c4)c4c2CCC4)CCC3)c1
- IC50: > 5 µM

Further lines, results first:

- IC50: 3.69 µM
Compound: O=C(Nc1c2c(cc3c1CCC3)CCC2)NS(=O)(=O)c1ccc(CN2CCOCC2)cc1

- IC50: 1.12 µM
Compound: COC(=O)c1ccc(-c2c3c(c(NC(=O)NS(=O)(=O)c4cc(C(C)(C)O)co4)c4c2CCC4)CCC3)cc1

- IC50: > 5 µM
Compound: CC(C)(C)OC(=O)N1C=C(c2c3c(c(NC(=O)NS(=O)(=O)c4cc(C(C)(C)O)co4)c4c2CCC4)CCC3)CCC1

- IC50: 3.72 µM
Compound: CNC(=O)c1cccc(S(=O)(=O)NC(=O)Nc2c3c(cc4c2CCC4)CCC3)c1

- IC50: 0.722 µM
Compound: CN(C)Cc1cc(F)cc(S(=O)(=O)NC(=O)Nc2c3c(cc4c2CCC4)CCC3)c1

- IC50: 1.25 µM
Compound: O=C(Nc1c2c(cc3c1CCC3)CCC2)NS(=O)(=O)c1ccc(CN2CCCCC2)cc1

- IC50: 1.48 µM
Compound: CN(C)Cc1ccc(S(=O)(=O)NC(=O)Nc2c(-c3ccccc3)cccc2-c2ccccc2)cc1
